Assay results as given in patent US20220160651A1, “RAPIDLY IMPROVING ENDOTHELIAL FUNCTION, REDUCING ARTERIAL STIFFNESS AND REVERSING CALCIFICATION OF BLOOD VESSELS BY ADMINISTERING VITAMIN K” (KAYDENCE PHARMA AS, priority 2019, published 2022).

What was measured:
[1] = test system: endothelial nitric oxide synthase (eNOS)-dependent nitric oxide (NO) production; assay: Endothelial NO production in ex vivo aorta by EPR spin-trapping; settings: 0.05 mg/kg b.w./day, vs untreated age-matched mice
Text: For measurements of endothelial nitric oxide synthase (eNOS)-dependent nitric oxide (NO) production, EPR spin-trapping with diethyldithiocarbamic acid sodium salt (DETC) was used ex vivo, as described in Przyborowski K, Proniewski B, Czarny J, Smeda M, Sitek B, Zakrzewska A, et al. Vascular Nitric Oxide-Superoxide Balance and Thrombus Formation after Acute Exercise. Med Sci Sport Exerc 2018:1. doi:10.1249/MSS.0000000000001589, with minor modifications. Isolated aorta cleared from surrounding tissue was opened longitudinally and preincubated with 10 μM L-NIL (N6-(1-Iminoethyl)-lysine, hydrochloride) in Krebs-HEPES buffer for 30 minutes at 37° C. in a well of a 48-well plate. Next, 250 μL of Fe(DETC)2 colloid was added and aorta was stimulated with calcium ionophore A23187 (the final concentration was 1 μM) and subsequently, incubated for 90 minutes at 37° C. Finally, aorta was weighed and frozen in liquid nitrogen (suspended in fresh buffer) into the middle of a 400 μL column of Krebs-Hepes buffer and stored at −80° C. until measured. EPR spectra were obtained using an X-band EPR spectrometer (EMX Plus, Bruker, Germany), equipped with a rectangular resonator cavity H102. Signals were quantified by measuring the total amplitude of the NO-Fe(DETC)2 after correction of baseline. The quantitative results of NO production assessed by EPR were expressed in AU/mg of tissue.

matrix gla protein (MGP) = assay: Clinical study: blood analysis of matrix gla protein carboxylation; format: in vivo, human; settings: 360 ug/day, after 8 weeks of treatment, kidney transplant patients
Procedure: (§1) Participants were enrolled in a clinical trial in which the effects of vitamin K2 were determined for patients who had recently undergone a kidney transplant. At the beginning of the study, patients were subjected to a non-invasive pulse wave velocity measurement to measure arterial stiffness/flexibility, as well as blood analysis. The study participants were then instructed to receive a specific daily dose of MenaQ7 vitamin K2 menaquinone-7 (360 ug/day) for a total of 8 weeks. At the end of 8 weeks, patients were again examined with a follow-up examination, a non-invasive pulse wave velocity measurement and blood analysis and drug treatment was discontinued.
As part of the blood analysis, carboxylated matrix gla protein (MGP) was measured as a direct measure of vitamin K2 activity. The carboxylated MGP inhibits calcification of blood vessels and Vitamin K2 stimulates carboxylation of MGP.

ApoE/LDLR−/− mice [2] = assay: Histological assessment of area and composition of atherosclerotic plaque in BCA, older mice (Example 3); format: in vivo; settings: eight weeks
Text: For the determination of atherosclerotic plaque area and composition isolated brachiocephalic artery (BCA) was dissected, fixed in 4% buffered formalin, and embedded in paraffin. 5 μm-thick serial sections of BCA were collected from the proximal to distal part of the artery. Staining with Unna's orcein combined with Martius, Scarlet and Blue trichrome (OMSB) was applied on every tenth section (50 μm interval between each section) for quantitative analysis of atherosclerotic plaques. The areas of particular components of atherosclerotic plaque as well as artery lumen and wall were determined after Columbus-based software processing (FIG. 9) using specially-designed algorithm as described in Gajda M, Jasztal A, Banasik T, Jasek-Gajda E, Chlopicki S. Combined orcein and martius scarlet blue (OMSB) staining for qualitative and quantitative analyses of atherosclerotic plaques in brachiocephalic arteries in apoE/LDLR−/− mice. Histochem Cell Biot 2017. doi:10.1007/s00418-017-1538-8. The parameters analyzed include vessel wall area (VWA), internal vessel area (IVA=plaque area+lumen area), plaque area (expressed as percent of internal wall area: plaque/IWA), and lumen area (expressed as percent of internal wall area: lumen/IWA).

[3] = test system: kidney transplantation patients; assay: Clinical study: non-invasive pulse wave velocity measurement of arterial stiffness; format: in vivo, human; settings: 360 ug/day, after 8 weeks of treatment, kidney transplant patients
Procedure: Clinical Study to study the efficacy and safety of Vitamin K2 supplementation on arterial stiffness, the rigidity of arterial walls, in kidney transplantation patients.
A clinical study was carried out. Arterial wall property measurements were taken at t=0 and t=8 weeks and show a dramatic improvement in arterial wall flexibility. This is good support for concluding that the ingestion of vitamin K, even over this short period, is an effective way of improving endothelial function, reducing arterial stiffness and reducing calcification. […] It is surprising and unexpected because calcification is a slow progressive process and it was thought that reversing this process would also be slow and progressive.
as §1

ApoE/LDLR−/− mice [4] = assay: Histological assessment of plaque size and composition and vessel wall area in BCA (Example 2); format: in vivo; settings: two months
Text: Plaque size and composition as well as vessel wall area (VWA) in BCA—Histological assessment, cross-section method, BCA cross-sections: total 13000 slides, Photographed: 1214 slides
For the determination of atherosclerotic plaque area and composition BCA was dissected, fixed in 4% buffered formalin and embedded in paraffin. 5 μm-thick serial sections of BCA were collected from proximal, middle and distal parts of artery. Originally developed staining with Unna's orcein combined with Martius, Scarlet and Blue trichrome (OMSB), was applied on every tenth section (50 μm interval between each section) for visualization of collagen, elastin, fibrin, red blood cells and vascular smooth muscle cells within atherosclerotic plaque. The areas of particular components of atherosclerotic plaque as well as artery lumen and wall were determined after Columbus-based software processing (FIG. 1B) using a previously developed algorithm [Gajda M, Jasztal A, Banasik T, Jasek-Gajda E, Chlopicki S. Combined orcein and martius scarlet blue (OMSB) staining for qualitative and quantitative analyses of atherosclerotic plaques in brachiocephalic arteries in apoE/LDLR−/− mice. Histochem Cell Biol 2017. doi:10.1007/s00418-017-1538-81.

For `CC(C)=CCC/C(C)=C/CC/C(C)=C/CC/C(C)=C/CC/C(C)=C/CC/C(C)=C/CC/C(C)=C/CC1=C(C)C(=O)c2ccccc2C1=O` [MK-7, menaquinone-7], the “nitric oxide production in ex vivo aorta by EPR” value [1] was “increased nitric oxide production”, the “mean reduction of levels of uncarboxylated MGP” value (matrix gla protein (MGP)) was 55% and the “plaque size compared with non-treated mice” value (ApoE/LDLR−/− mice [2]; low (0.03 mg/kg b.w./day) or high dose (10 mg/kg b.w./day)) was “not different”. The “decrease in vessel wall area (VWA) of BCA” value (ApoE/LDLR−/− mice [2]; low and high dose, 24-week-old mice) was “about 5%”, the “plaque and lumen area expressed as percent of IWA” value (ApoE/LDLR−/− mice [2]; low or high dose) was “did not change” and the “internal wall area (IWA)” value (ApoE/LDLR−/− mice [2]; lower dose) was “decreased only in the middle part of the vessel”. The “mean reduction in measured pulse-wave velocity” value [3] was 30%, the “decrease in vessel wall area (VWA) of BCA” value (ApoE/LDLR−/− mice [4]; low and high dose (0.03 and 10 mg/kg b.w./day)) was “about 5%” and the “decrease of lipid core expressed as percent of plaque” value (ApoE/LDLR−/− mice [4]; low and high dose) was “about 17%”. The “effect on plaque size” value (ApoE/LDLR−/− mice [4]; low or high dose) was “did not result in a beneficial effect on plaque size”, the “plaque and lumen area expressed as percent of IWA” value (ApoE/LDLR−/− mice [4]; low or high dose) was “did not change” and the “internal wall area (IWA)” value (ApoE/LDLR−/− mice [4]; lower dose 0.03 mg/kg b.w./day) was “decreased only in the middle part of the vessel”. For the same compound, the “content of collagen in plaque” value (ApoE/LDLR−/− mice [4]; treated vs untreated groups) was “lack of differences between treated and untreated groups”.
